{"source": "patent US11491232B2", "about": "“Lactuloside compounds and preparation and use thereof” (Fruithy Holdings Limited, priority 2017, dated 2022)", "key": {"[1]": {"conditions": "rat, in vivo; for Concentration of prednisolone in the content, The first half segment of Small intestine / Concentration of prednisolone in the content, The last half segment of Small intestine: male, Sprague-Dawley (SD)", "experimental": "(§2) For the experiment animals of Group 1, Group 2 and Group 3, at each time point of 30 min, 1 h, 2 h, 3 h, 4 h, 5 h, 6 h, 8 h, and 10 h after the administration, 4 animals were randomly selected and sacrificed. The blood samples were collected, and the contents in the stomach and various segments of the intestine tract (the first half segment of the small intestine, the last half segment of the small intestine, the first third segment of the colon (including cecum), and the last two thirds segment of the colon) were weighed. […] 4 animals of Group 4 were sacrificed at the time point of 10 h. The blood samples and the contents in various segments of the gastrointestinal tract were collected as blank control."}, "[2]": {"assay": "Systemic pharmacokinetics (plasma) after oral administration to SD rats", "type": "in vivo", "experimental": "as §2"}, "[3]": {"test_system": "ulcerative colitis models of Wistar rat induced by enema with trinitrobenzenesulfonic acid (TNBS)", "assay": "Pharmacodynamic effect of intragastric administration in ulcerative colitis models of Wistar rat induced by TNBS enema", "type": "in vivo", "conditions": "Wistar rats; for colon coefficient on Day 8 after modeling compared with the model control group / histopathological score of colon on Day 8 after modeling compared with the model control group / body weight change (increase) on Day 8 after modeling as compared to the model group: intragastric qd × 7, Compound 1 1.91 mg/kg; for colon coefficient on Day 8 after modeling compared with the model control group: prednisolone 1 mg/kg (FIG. 6); for histopathological score of colon on Day 8 after modeling compared with the model control group: prednisolone 1 mg/kg (FIG. 7); for body weight change (increase) on Day 8 after modeling as compared to the model group: prednisolone 1 mg/kg, only Compound 1 vs model significant (FIG. 5)", "procedure": "Comparison research among therapeutic effects of Compound 1 and a commercial formulation of prednisolone (prednisolone tablet, produced by Wuhan Yuancheng Co-Creation Technology Co., Ltd.) on ulcerative colitis models of Wistar rats after intragastric administration was carried out to further evaluate the improvement in main therapeutic effect indexes of the intragastric perfusion therapy of Compound 1 and compare it with that of treatment group with equivalent moles of a commercial formulation of prednisolone, thereby providing pharmacodynamic support for further development of Compound 1.\nAccording to the experiment, 40 male Wistar rats (180-220 grams) were purchased, and randomly divided into four groups (i.e., physiological saline control group, model control group, prednisolone group and Compound 1 group), and there were 10 animals in each group. Except the physiological saline control group, ulcerative colitis animal models were produced by once enema administration of a mixed solution of 2.5% TNBS-50% ethanol (containing 80 mg/kg TNBS) to experiment animals in other three groups in an amount of 3.2 ml/kg. For the physiological control group, physiological saline was once administered by enema in an amount of 3.2 ml/kg. At 24 h after the modeling administration, the corresponding solvent control or therapeutic drugs were administered by enema depending on animal groups (qd×7d (one dose per day, for 7 days)), and detailed grouping and administration information is as shown in Table 14 below.\nDuring the investigation, the main indexes to be observed include: death of animals, clinical observation, body weight, colon coefficient, histopathological examination of animals, and so on. For each experiment group, on Day 8 after modeling, animals were sacrificed. Colon tissues were collected to calculate the colon coefficient (colon coefficient=colon weight (g)/animal body weight (g) * 100%)."}, "[4]": {"assay": "Test on stability in mediums in vitro (buffer solutions with different pH, simulated intestinal fluid, simulated gastric fluid)", "type": "physicochemical", "procedure": "At 37° C., Compound 17 was incubated in different mediums (buffer solutions with different pH, a simulated intestinal fluid containing pancreatin, and simulated gastric fluid containing pepsin).\n(§1) Other typical example compounds were tested for stability according to the above method, and the test results are shown in Table 8 below."}, "colon flora": {"test_system": "colon flora", "assay": "Stability in the presence of colon flora (content in colon of rat)", "type": "in vitro ADME, SD rat", "conditions": "male, Sprague-Dawley (SD), rat, 1 h, pH 6.8", "procedure": "A phosphate buffer solution with a pH of 7.0 was formulated, and then CO2 was introduced to the solution to adjust the pH to 6.8. Then, the content in colon of a male SD rat (body weight: 180-220 g) was placed in a water bath at 37° C., and added into the phosphate buffer solution with a pH of 6.8 as prepared above under the protection of N2 to a concentration of 20% (w/v). The buffer solution was kept in an oxygen-free environment. Then, the test Compound 17 was added to the buffer solution, and the solution was stirred uniformly.\nSupernatant was analyzed with HPLC, where the amount of each ingredient was calculated by normalization.\nNote: in the above table, “T14.148 (%)” represents the percentage of peak area of the material with a retention time of 14.148 min “T14.713 (%)” represents the percentage of peak area of the material with a retention time of 14.713 min. “T16.392 (%)” represents the percentage of peak area of the material with a retention time of 16.392 min. “T22.624 (%)” represents the percentage of peak area of the material with a retention time of 22.624 min.\nas §1"}, "[5]": {"conditions": "intragastric administration, FIG. 3"}, "[6]": {"conditions": "Simulated intestinal fluid (containing pancreatin) (pH 6.8) (8 h)"}}, "note": "Like-named read-outs stand apart in the source and are kept apart here.", "data": [{"smiles": "C[C@]12C=CC(=O)C=C1CC[C@@H]1[C@@H]2[C@@H](O)C[C@@]2(C)[C@H]1CC[C@]2(O)C(=O)COC1(CO)O[C@H](CO)[C@@H](O[C@@H]2O[C@H](CO)[C@H](O)[C@H](O)[C@H]2O)[C@@H]1O", "note": "(stereo partly drawn) [Compound 1, (11β)-11,17-dihydroxyl-21-{[4-O-(β-D-galactopyranosyl)-D-fructofuranosyl]oxy}pregna-1,4-diene-3,20-dione]", "values": [{"measurement": "passage through the gastrointestinal tract of a mammal (absorption and hydrolysis)", "setting": "[1]", "result": "without being absorbed significantly by the gastrointestinal tract and hydrolyzed significantly by endogenous enzymes of a mammal host"}, {"measurement": "factor of increase of maximum concentrations (Cmax) of local prednisolone in the cecum and colon sites as compared to prednisolone group", "setting": "[1]; po", "result": "65-360"}, {"measurement": "total exposure (AUC) of local prednisolone in the cecum and colon sites compared with prednisolone group", "setting": "[1]; po", "result": "much higher than the prednisolone (original form) group"}, {"measurement": "plasma prednisolone Cmax as compared to free prednisolone group", "setting": "[2]; [5]", "result": "very low"}, {"measurement": "plasma prednisolone time to peak as compared to free prednisolone group", "setting": "[2]; [5]", "result": "significantly delayed"}, {"measurement": "concentration at 0.5 h", "setting": "[2]; male, Sprague-Dawley, rat, plasma, oral, 9.55 mg/kg intragastric, 0.5 h (only time point with detection), read-out: concentration of Compound 1 in the rat plasma", "result": 10.4, "unit": "ng/mL"}, {"measurement": "day after modeling on which the body weight began to rise", "setting": "[3]; TNBS model, intragastric qd × 7, 1.91 mg/kg", "result": 4, "unit": "days"}, {"measurement": "colon coefficient on Day 8 after modeling compared with the model control group", "setting": "[3]", "result": "significantly lower than that for the model control group (p<0.05)"}, {"measurement": "histopathological score of colon on Day 8 after modeling compared with the model control group", "setting": "[3]", "result": "significantly lower than that for the model control group (p<0.05)"}, {"measurement": "body weight change (increase) on Day 8 after modeling as compared to the model group", "setting": "[3]", "result": "statistically significant"}, {"measurement": "Percentage of the example compound remaining (Composition, %)", "setting": "[4]; [6]", "result": 99.0, "unit": "%"}, {"measurement": "Percentage of the released active drug (prednisolone, dexamethasone, budesonide, apremilast or prucalopride) (Composition, %)", "setting": "[4]; [6]", "result": 0.2, "unit": "%"}, {"measurement": "Percentage of the example compound remaining (Composition, %)", "setting": "[4]; Water (pH 1.2) (2 h)", "result": 30.4, "unit": "%"}, {"measurement": "Percentage of the released active drug (prednisolone, dexamethasone, budesonide, apremilast or prucalopride) (Composition, %)", "setting": "[4]; Water (pH 1.2) (2 h)", "result": 67.2, "unit": "%"}, {"measurement": "Percentage of the example compound remaining (Composition, %)", "setting": "colon flora", "result": 22.1, "unit": "%"}, {"measurement": "Percentage of the released active drug (prednisolone, dexamethasone, budesonide, apremilast or prucalopride) (Composition, %)", "setting": "colon flora", "result": 39.7, "unit": "%"}]}, {"smiles": "C[C@]12C=CC(=O)C=C1CC[C@@H]1[C@@H]2[C@@H](O)C[C@@]2(C)[C@H]1CC[C@]2(O)C(=O)CO", "note": "[Prednisolone, prednisolone]", "values": [{"measurement": "Concentration of prednisolone in the content, The first half segment of Small intestine", "setting": "[1]; 0.5 h", "result": "16.66 ± 2.89", "unit": "nmol/g"}, {"measurement": "Concentration of prednisolone in the content, The last half segment of Small intestine", "setting": "[1]; 0.5 h", "result": "16.27 ± 3.34", "unit": "nmol/g"}, {"measurement": "Concentration of prednisolone in the content, The first half segment of Small intestine", "setting": "[1]; 1 h", "result": "19.20 ± 3.44", "unit": "nmol/g"}, {"measurement": "Concentration of prednisolone in the content, The last half segment of Small intestine", "setting": "[1]; 2 h", "result": "19.81 ± 2.77", "unit": "nmol/g"}, {"measurement": "Concentration of prednisolone in the content, The first half segment of Small intestine", "setting": "[1]; 3 h", "result": "21.16 ± 2.18", "unit": "nmol/g"}, {"measurement": "Concentration of prednisolone in the content, The last half segment of Small intestine", "setting": "[1]; 3 h", "result": "20.47 ± 3.08", "unit": "nmol/g"}, {"measurement": "Concentration of prednisolone in the content, The first half segment of Small intestine", "setting": "[1]; 4 h", "result": "17.38 ± 3.04", "unit": "nmol/g"}, {"measurement": "Concentration of prednisolone in the content, The last half segment of Small intestine", "setting": "[1]; 4 h", "result": "13.27 ± 2.09", "unit": "nmol/g"}, {"measurement": "Concentration of prednisolone in the content, The first half segment of Small intestine", "setting": "[1]; 5 h", "result": "7.34 ± 1.38", "unit": "nmol/g"}, {"measurement": "Concentration of prednisolone in the content, The last half segment of Small intestine", "setting": "[1]; 5 h", "result": "6.94 ± 1.35", "unit": "nmol/g"}, {"measurement": "Concentration of prednisolone in the content, The first half segment of Small intestine", "setting": "[1]; 6 h", "result": "0.36 ± 0.05", "unit": "nmol/g"}, {"measurement": "Concentration of prednisolone in the content, The last half segment of Small intestine", "setting": "[1]; 6 h", "result": "0.32 ± 0.06", "unit": "nmol/g"}, {"measurement": "Concentration of prednisolone in the content, The last half segment of Small intestine", "setting": "[1]; 8 h", "result": "0.04 ± 0.01", "unit": "nmol/g"}, {"measurement": "Cmax value of prednisolone in the content, Stomach", "setting": "[1]; po, 5 mg/kg", "result": 370.53, "unit": "nmol/g"}, {"measurement": "Cmax value of prednisolone in the content, The first half segment of Small intestine", "setting": "[1]; po, 5 mg/kg", "result": 51.92, "unit": "nmol/g"}, {"measurement": "Cmax value of prednisolone in the content, The first third segment (including cecum) of Colon", "setting": "[1]; po, 5 mg/kg", "result": 0.70, "unit": "nmol/g"}, {"measurement": "Cmax value of prednisolone in the content, The last half segment of Small intestine", "setting": "[1]; po, 5 mg/kg", "result": 22.05, "unit": "nmol/g"}, {"measurement": "Cmax value of prednisolone in the content, The last two thirds segment of Colon", "setting": "[1]; po, 5 mg/kg", "result": 0.14, "unit": "nmol/g"}, {"measurement": "colon coefficient on Day 8 after modeling compared with the model control group", "setting": "[3]", "result": "not statistically significant"}, {"measurement": "histopathological score of colon on Day 8 after modeling compared with the model control group", "setting": "[3]", "result": "not statistically significant"}, {"measurement": "body weight change (increase) on Day 8 after modeling as compared to the model group", "setting": "[3]", "result": "higher than that for the model group"}]}]}
